For data set [1], the target named is Carbonic anhydrase 9 (Homo sapiens, UniProt Q16790). In words: Inhibition of human carbonic anhydrase IX assessed as inhibition constant incubated for 15 mins by stopped flow CO2-hydrase assay.
The nature of data set [2]: in vitro. The following applies: human, HaCaT cells.
Description: Cytotoxicity against human HaCaT cells assessed as reduction in cell proliferation incubated for 72 hrs by MTT assay
The target in data set [3] is Carbonic anhydrase 12 (Homo sapiens, UniProt O43570). In words: Inhibition of human carbonic anhydrase XII assessed as inhibition constant incubated for 15 mins by stopped flow CO2-hydrase assay.
Chain of Carbonic anhydrase 12 (O43570 whole entry): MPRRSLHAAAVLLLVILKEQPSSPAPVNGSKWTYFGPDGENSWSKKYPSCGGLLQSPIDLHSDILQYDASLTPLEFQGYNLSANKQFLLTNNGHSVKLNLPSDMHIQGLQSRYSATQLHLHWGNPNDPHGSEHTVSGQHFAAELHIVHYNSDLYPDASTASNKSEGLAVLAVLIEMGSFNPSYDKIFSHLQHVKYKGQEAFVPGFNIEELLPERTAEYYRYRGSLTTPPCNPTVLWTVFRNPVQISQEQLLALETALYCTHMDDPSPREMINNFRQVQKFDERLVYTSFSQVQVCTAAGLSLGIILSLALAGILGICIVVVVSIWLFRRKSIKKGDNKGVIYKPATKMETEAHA
The nature of data set [4]: Selectivity index, ratio of IC50 for human HaCaT cells to IC50 for human MCF7 cells. The following applies: HaCaT cells versus MCF7 cells, read-out: Ratio IC50. The format is toxicity.
Data set [5] deals with HCT-116. In words: cells. The following applies: Homo sapiens, HCT-116, 72 h.
Description: Antiproliferative activity against human HCT-116 cells assessed as reduction in cell proliferation incubated for 72 hrs by MTT assay
The target in data set [6] is Carbonic anhydrase 1 (Homo sapiens, UniProt P00915). In words: Inhibition of human carbonic anhydrase I assessed as inhibition constant incubated for 15 mins by stopped flow CO2-hydrase assay.
Chain of Carbonic anhydrase 1 (P00915 whole entry): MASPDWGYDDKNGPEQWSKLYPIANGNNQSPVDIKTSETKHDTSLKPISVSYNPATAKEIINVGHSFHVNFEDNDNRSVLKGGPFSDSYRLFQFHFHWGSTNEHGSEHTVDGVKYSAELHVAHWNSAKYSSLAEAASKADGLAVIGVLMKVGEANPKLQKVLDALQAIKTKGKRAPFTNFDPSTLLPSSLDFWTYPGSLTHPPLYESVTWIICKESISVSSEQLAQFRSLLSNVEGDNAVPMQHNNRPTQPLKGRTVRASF
The nature of data set [7]: Selectivity index, ratio of IC50 for human HaCaT cells to IC50 for human HeLa cells. The class given is toxicity. The following applies: HaCaT cells versus HeLa cells, read-out: Ratio IC50.
Data set [8] is described as follows: Selectivity index, ratio of IC50 for human HaCaT cells to IC50 for human HCT-116 cells. The class given is toxicity. The following applies: HaCaT cells versus HCT-116 cells, read-out: Ratio IC50.
For data set [9], the system named is HeLa. In words: cells. The following applies: Homo sapiens, 72 h.
Description: Antiproliferative activity against human HeLa cells assessed as reduction in cell proliferation incubated for 72 hrs by MTT assay
Data set [10] deals with Carbonic anhydrase 2 (Homo sapiens, UniProt P00918). Briefly: Inhibition of human carbonic anhydrase II assessed as inhibition constant incubated for 15 mins by stopped flow CO2-hydrase assay.
Data set [11] has as its system MCF7. Briefly: cells. The following applies: Homo sapiens, MCF7, 72 h.
Description: Antiproliferative activity against human MCF7 cells assessed as reduction in cell proliferation incubated for 72 hrs by MTT assay
Data set [12] concerns MCF7. Briefly: Inhibition of colony formation in human MCF7 cells assessed as reduction in colony formation at 5 uM preincubated with compound for 24 hrs followed by replacement with DMEM medium and measured after 2 weeks by crystal violet staining based analysis relative to control. The format is functional.
In data set [13] the test system is MCF7. In words: Induction of apoptosis in human MCF7 cells assessed as increase in caspase activity at 10 uM preincubated for 48 hrs followed by carboxyfluorescein-labeled fluoro-methyl ketone peptide addition and measured after 1 hrs by fluorescence based analysis relative to control. The format is functional.
Data set [14] concerns MCF7. Briefly: Inhibition of colony formation in human MCF7 cells assessed as reduction in colony formation at […] preincubated with compound for 24 hrs followed by replacement with DMEM medium and measured after 2 weeks by crystal violet staining based analysis relative to control. The format is functional. The following applies: dose 2.5 µM.
Data set [15] deals with MCF7. Briefly: Antiproliferative activity against human MCF7 cells assessed as reduction in cell proliferation incubated for 24 hrs by MTT assay. The format is functional, cell-based. The following applies: MCF7, 24 h. (In general: Tetrazolium assays rely on reduction of a dye to a coloured formazan, in cell work by metabolically active cells.)
Data set [16] concerns MCF7. Briefly: Induction of apoptosis in human MCF7 cells assessed as total apoptotic cells at 10 uM incubated for 72 hrs by Annexin V-PE/7-AAD staining based flow cytometric analysis relative to control. The format is functional. (In general: A flow cytometer gives signals particle by particle.)
Data set [17] has as its system MCF7. In words: Effect on apoptosis in human MCF7 cells assessed as fold decrease in apoptotic cells at 10 uM preincubated with U0126 for 1 hrs followed by compound addition and measured after 72 hrs by Annexin V-PE/7-AAD staining based flow cytometric analysis. The class given is functional.
The test system of data set [18] is MCF7. Briefly: Antiproliferative activity against human MCF7 cells assessed as reduction in cell proliferation incubated for 48 hrs by MTT assay. The format is functional, cell-based. The following applies: MCF7, 48 h.

For orientation: Ki means the equilibrium dissociation constant of an inhibitor or competing ligand from its target. The IC50 is the concentration that gives 50% inhibition. Broadly, the inhibition is the percentage by which the read-out fell short of the control.

Molecules are shown by their SMILES.

Turning to `NS(=O)(=O)c1cc(C(=O)N/N=C/c2ccc(O)cc2O)c(SCc2ccc(F)cc2)cc1Cl`, the Ki in data set [1] was found to be 0.0801 µM; in data set [3] it was 0.0803 µM; in [6], 0.0807 µM; in [10], 0.0561 µM. The IC50 at 72 h in [2] is 32 µM. The figures for the selectivity ratio in data set [4], in data set [7] and in data set [8] were 1.2, 1.1 and 2.9, respectively. Besides, the IC50 amounted to 11.5 µM in data set [5], 28 µM in data set [9] and 25 µM in data set [11].
`NNC(=O)c1cc(S(N)(=O)=O)c(Cl)cc1SCc1ccc(F)cc1`: the 50% inhibitory concentration (IC50) at 72 h in data set [2] was determined as 65 µM. For the same compound, the results for the selectivity ratio in [4], in data set [7] and in [8] were 2.7, 1.8 and 3.6, respectively. In addition, the IC50 in data set [5] came out at 18 µM; in [9], 36 µM; in [11], 24 µM.
Regarding `NS(=O)(=O)c1cc(C(=O)N/N=C/c2ccc(O)cc2O)c(SCc2ccccc2)cc1Cl`, the Ki in data set [1] was found to be 0.0581 µM; in [3], 0.0568 µM; in data set [6], 0.144 µM; in [10], 0.0491 µM. Moreover, the IC50 at 72 h in data set [2] is 58 µM. Moreover, the selectivity ratio in data set [4] was 2.6; in [7], 2; in data set [8], 4.1. In addition, the IC50 turned out to be 14 µM in [5], 29 µM in data set [9] and 22 µM in [11].
As to `NS(=O)(=O)c1cc(C(=O)N/N=C/c2ccc(Br)cc2O)c(SCc2ccc(F)cc2)cc1Cl`, the inhibition at 5 µM in data set [12] amounted to 80%. The Activity in data set [13] was 30%; in [16], 60%. For the same compound, the Ki is 0.852 µM in data set [1], 0.695 µM in [3], 0.537 µM in [6] and 0.646 µM in data set [10]. In data set [2], this compound returned an IC50 at 72 h of 33 µM. Further, the inhibition at […] in data set [14] stood at 65%. The selectivity ratio in [4] came out at 5.5; in [7], 1.8; in data set [8], 5.5. The IC50 in data set [5] stood at 6 µM; in data set [15] it was 90 µM; in data set [9] it was 18 µM; in data set [11], 6 µM; in data set [18], 6 µM. Besides, in data set [17], the “fold change (FC)” value worked out at 2.2.
In the case of `NNC(=O)c1cc(S(N)(=O)=O)c(Cl)cc1SCc1ccccc1`, the IC50 in data set [5] worked out at 155 µM; in data set [9], 350 µM; in data set [11], 105 µM.
With `NS(=O)(=O)c1cc(C(=O)N/N=C/c2ccc(Br)cc2O)c(SCc2ccccc2)cc1Cl`, the inhibition at 5 µM in data set [12] turned out to be 85%. The values for the Activity in data set [13] and in data set [16] were 30% and 65%, respectively. Besides, the Ki was found to be 0.0857 µM in [1], 0.0822 µM in [3], 0.328 µM in data set [6] and 0.0411 µM in data set [10]. Further, the inhibition at […] in [14] came out at 80%. Besides, the figures for the selectivity ratio in data set [4] and in data set [7] were 8.2 and 2, respectively. For the same compound, the IC50 in data set [15] is 98 µM; in data set [9], 16 µM; in data set [11], 4 µM; in data set [18] it was 6 µM. Also, the “fold change (FC)” value in data set [17] came out at 2.

The values are drawn from ChEMBL document CHEMBL6092197, “Novel benzenesulfonamide-aroylhydrazone conjugates as carbonic anhydrase inhibitors that induce MAPK/ERK-mediated cell cycle arrest and mitochondrial-associated apoptosis in MCF-7 breast cancer cells” (Bioorg Med Chem, 2024).
